Laboratory results taken from US10624968B2, “Compounds for treating cancer” (Bicycle Therapeutics Limited, priority 2017, dated 2020).
Starred links: 1 amine or outer side, 2 acyl side, 3 side chain; linkers in the order of their positions; H or OH if unused. Positions of bridges follow the written chain, without caps; N, C: chain ends. Non-standard residues stand in square brackets, D forms with d. Residues, ends and D or L forms follow the SMILES beside them. ξ: configuration not given here. *: point of attachment. X4 = COc1cc2cc(c1Cl)N(C)C(=O)C[C@H](OC(=O)[C@H](C)N(C)C(=O)CCN(C)*)[C@]1(C)O[C@H]1[C@H](C)[C@@H]1C[C@@](O)(NC(=O)O1)[C@H](OC)/C=C/C=C(\C)C2; 1Nal = N[C@@H](Cc1cccc2ccccc12)C(=O)O; TBMB = c1c(C[*:1])cc(C[*:3])cc1C[*:2]; PABC = O=C(OCc1ccc(N[*:1])cc1)[*:2]; Glutaryl = O=C(CCCC(=O)[*:2])[*:1]; ξ1Nal = NC(Cc1cccc2ccccc12)C(=O)O; Cit = NC(=O)NCCC[C@H](N)C(=O)O; Tle = CC(C)(C)[C@H](N)C(=O)O; ξY = NC(Cc1ccc(O)cc1)C(=O)O; ξTle = CC(C)(C)C(N)C(=O)O; ξF = NC(Cc1ccccc1)C(=O)O; ξE = NC(CCC(=O)O)C(=O)O; ξD = NC(CC(=O)O)C(=O)O; ξN = NC(=O)CC(N)C(=O)O; ξC = NC(CS)C(=O)O; βAla = NCCC(=O)O; ξA = CC(N)C(=O)O; Sar = CNCC(=O)O

Assays:
[1] = Mortality, morbidity and body weight in HT1080 xenograft study (Example 13); type: in vivo, mouse
Description: (§1) All the procedures related to animal handling, care and the treatment in the study were performed following the guidance of the Association for Assessment and Accreditation of Laboratory Animal Care (AAALAC). At the time of routine monitoring, the animals were daily checked for any effects of tumor growth and treatments on normal behavior such as mobility, food and water consumption (by looking only), body weight gain/loss (body weights were measured every day), eye/hair matting and any other abnormal effect as stated in the protocol. Death and observed clinical signs were recorded on the basis of the numbers of animals within each subset.
Body weight was monitored regularly as an indirect measure of toxicity.

MMP15 = MMP15 (Homo sapiens, UniProt P51511); experiment: Binding to related MMP family members
MMP15, sequence (P51511 132-669, species assumed): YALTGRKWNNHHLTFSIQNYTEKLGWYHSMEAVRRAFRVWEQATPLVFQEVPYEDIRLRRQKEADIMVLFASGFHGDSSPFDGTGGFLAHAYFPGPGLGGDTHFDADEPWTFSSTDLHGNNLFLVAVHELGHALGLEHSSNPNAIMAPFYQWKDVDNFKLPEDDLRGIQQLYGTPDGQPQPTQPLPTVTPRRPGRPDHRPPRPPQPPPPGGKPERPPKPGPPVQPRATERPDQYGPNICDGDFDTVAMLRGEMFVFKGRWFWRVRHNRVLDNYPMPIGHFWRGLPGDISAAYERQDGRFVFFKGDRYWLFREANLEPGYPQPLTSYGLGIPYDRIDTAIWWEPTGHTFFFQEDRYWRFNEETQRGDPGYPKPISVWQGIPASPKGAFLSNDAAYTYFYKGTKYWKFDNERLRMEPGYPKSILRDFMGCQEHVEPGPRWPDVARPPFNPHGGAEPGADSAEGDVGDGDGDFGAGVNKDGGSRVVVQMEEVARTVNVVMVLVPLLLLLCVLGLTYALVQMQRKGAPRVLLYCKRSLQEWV

MMP1 [2] = biological target: T1, MMP1 (Homo sapiens, UniProt P03956); experiment: Binding to related MMP family members
T1 sequence (P03956 100-469, species assumed): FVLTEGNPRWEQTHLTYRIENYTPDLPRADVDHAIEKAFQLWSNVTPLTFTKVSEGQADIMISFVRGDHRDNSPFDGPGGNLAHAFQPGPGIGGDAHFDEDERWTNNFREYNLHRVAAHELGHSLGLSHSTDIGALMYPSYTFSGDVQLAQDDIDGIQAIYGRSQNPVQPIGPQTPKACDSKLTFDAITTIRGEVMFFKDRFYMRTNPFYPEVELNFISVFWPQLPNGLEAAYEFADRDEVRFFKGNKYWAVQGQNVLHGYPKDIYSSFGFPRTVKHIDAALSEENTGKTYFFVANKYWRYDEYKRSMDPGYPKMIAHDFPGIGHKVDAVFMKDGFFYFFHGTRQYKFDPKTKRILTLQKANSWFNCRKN

MT1 = MT1 (Homo sapiens, UniProt P50281); experiment: Effect on catalytic activity of the protease in vitro; type: biochemical
MMP9 = MMP9 (Homo sapiens, UniProt P14780); experiment: Effect on related MMP catalytic activity; type: biochemical
MMP9, sequence (P14780 94-707, species assumed): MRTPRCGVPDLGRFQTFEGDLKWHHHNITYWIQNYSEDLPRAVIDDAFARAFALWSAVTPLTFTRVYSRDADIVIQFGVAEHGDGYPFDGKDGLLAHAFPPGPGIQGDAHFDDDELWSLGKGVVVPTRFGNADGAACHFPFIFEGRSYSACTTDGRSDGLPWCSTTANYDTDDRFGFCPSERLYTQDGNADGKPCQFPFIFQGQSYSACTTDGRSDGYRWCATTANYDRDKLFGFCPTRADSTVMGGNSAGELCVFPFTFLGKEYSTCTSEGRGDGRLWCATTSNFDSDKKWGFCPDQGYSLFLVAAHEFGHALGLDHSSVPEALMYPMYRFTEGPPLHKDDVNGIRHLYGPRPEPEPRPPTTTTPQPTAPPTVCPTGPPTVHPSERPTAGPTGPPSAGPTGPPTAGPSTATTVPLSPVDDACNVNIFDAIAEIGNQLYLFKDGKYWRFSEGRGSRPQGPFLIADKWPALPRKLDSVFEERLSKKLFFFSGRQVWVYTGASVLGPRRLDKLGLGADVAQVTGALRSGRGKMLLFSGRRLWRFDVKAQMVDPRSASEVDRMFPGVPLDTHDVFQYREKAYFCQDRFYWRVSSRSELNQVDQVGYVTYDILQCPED

catalytic domain of MT1 = experiment: Bicycle peptide binding to catalytic domain
MMP24 = MMP24 (Homo sapiens, UniProt Q9Y5R2); experiment: Binding to related MMP family members
MMP24, sequence (Q9Y5R2 156-645, species assumed): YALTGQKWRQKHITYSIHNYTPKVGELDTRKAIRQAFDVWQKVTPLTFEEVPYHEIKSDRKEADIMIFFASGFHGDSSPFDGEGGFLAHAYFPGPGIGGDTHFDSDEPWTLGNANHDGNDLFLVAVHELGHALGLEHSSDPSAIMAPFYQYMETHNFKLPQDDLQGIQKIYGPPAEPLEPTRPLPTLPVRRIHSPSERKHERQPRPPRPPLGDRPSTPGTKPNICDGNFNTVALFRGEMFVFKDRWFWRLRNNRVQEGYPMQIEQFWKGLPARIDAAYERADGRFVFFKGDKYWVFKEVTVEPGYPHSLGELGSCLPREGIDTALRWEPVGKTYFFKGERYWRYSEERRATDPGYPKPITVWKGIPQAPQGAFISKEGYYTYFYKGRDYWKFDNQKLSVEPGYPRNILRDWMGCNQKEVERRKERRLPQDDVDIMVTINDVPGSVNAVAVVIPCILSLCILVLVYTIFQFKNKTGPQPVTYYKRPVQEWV

MMP2 [3] = biological target: T2, MMP2 (Homo sapiens, UniProt P08253); experiment: Binding to related MMP family members
T2 sequence (P08253 110-660, species assumed): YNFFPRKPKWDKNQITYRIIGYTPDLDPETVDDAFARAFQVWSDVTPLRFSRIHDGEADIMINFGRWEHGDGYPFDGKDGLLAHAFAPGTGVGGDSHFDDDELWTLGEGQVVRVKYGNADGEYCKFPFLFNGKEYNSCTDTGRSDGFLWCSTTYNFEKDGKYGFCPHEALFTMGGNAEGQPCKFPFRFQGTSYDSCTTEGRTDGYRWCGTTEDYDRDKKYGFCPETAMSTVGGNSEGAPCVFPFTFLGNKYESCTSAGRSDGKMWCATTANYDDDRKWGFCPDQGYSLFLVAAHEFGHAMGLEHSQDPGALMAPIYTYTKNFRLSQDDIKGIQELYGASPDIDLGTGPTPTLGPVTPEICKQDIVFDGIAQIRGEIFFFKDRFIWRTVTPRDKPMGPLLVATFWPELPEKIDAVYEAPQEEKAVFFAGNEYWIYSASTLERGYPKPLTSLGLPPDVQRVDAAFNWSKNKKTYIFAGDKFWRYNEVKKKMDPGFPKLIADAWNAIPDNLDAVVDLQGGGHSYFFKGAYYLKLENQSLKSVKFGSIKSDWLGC

MMP1 [4] = biological target: T1, MMP1; experiment: Effect on related MMP catalytic activity; type: biochemical
hemopexin domain of MT1 = hemopexin domain of MT1 (Homo sapiens, UniProt P50281); experiment: Bicycle peptide binding to hemopexin domain of MT1; conditions: read-out: apparent Kd
MMP16 = MMP16 (Homo sapiens, UniProt P51512); experiment: Binding to related MMP family members
MMP16, sequence (P51512 120-607, species assumed): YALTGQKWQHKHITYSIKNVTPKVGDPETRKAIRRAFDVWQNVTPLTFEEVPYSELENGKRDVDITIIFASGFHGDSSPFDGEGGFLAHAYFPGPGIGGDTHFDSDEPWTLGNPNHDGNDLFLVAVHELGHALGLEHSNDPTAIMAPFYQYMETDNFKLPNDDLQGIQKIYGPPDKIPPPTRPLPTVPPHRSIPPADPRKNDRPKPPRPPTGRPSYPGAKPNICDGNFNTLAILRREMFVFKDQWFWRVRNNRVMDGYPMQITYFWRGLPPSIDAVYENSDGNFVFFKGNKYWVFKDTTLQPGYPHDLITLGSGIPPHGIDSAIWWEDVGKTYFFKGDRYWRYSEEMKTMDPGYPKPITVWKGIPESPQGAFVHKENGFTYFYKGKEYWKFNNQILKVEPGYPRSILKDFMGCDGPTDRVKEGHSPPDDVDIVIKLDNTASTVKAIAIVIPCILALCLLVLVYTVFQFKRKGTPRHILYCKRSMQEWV

Pro-MMP1 = biological target: T3, Pro-MMP1 (Homo sapiens, UniProt P03956); experiment: Binding to related MMP family members
T3 construct: (MMP15, MMP16, MMP24, MMP1, Pro-MMP1, MMP2)
T3 sequence (P03956 20-469 limits assumed): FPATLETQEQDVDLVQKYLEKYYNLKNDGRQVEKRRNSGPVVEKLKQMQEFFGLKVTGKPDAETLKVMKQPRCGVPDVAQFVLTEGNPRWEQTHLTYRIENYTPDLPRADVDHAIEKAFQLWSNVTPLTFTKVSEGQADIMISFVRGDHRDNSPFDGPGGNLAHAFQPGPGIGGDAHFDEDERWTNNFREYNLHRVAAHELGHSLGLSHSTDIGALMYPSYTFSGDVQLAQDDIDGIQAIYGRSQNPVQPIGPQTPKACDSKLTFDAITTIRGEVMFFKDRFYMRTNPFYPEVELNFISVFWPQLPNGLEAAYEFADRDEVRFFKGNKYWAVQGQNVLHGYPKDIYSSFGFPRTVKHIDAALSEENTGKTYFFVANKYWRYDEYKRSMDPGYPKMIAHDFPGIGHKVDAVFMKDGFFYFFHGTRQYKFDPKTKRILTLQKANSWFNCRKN

MMP2 [5] = biological target: T2, MMP2; experiment: Effect on related MMP catalytic activity; type: biochemical
[6] = test system: cell migration or invasion; experiment: Effect on cell migration or invasion; type: cell-based
LU-01-0486 PDX = experiment: Efficacy in MT1-MMP low-expressing LU-01-0486 NSCLC PDX model; type: in vivo, mouse; conditions: dose not given
Description: The objective of this study was to evaluate the in vivo anti-tumor efficacy of I-1a in the treatment of MT1-MMP low-expressing LU-01-0486 PDX model in female Balb/C nude mice
Each mouse was inoculated subcutaneously at the right flank with LU-01-0486 of tumor fragment (30 mm^3) for tumor development. The treatments was started when the average tumor volume reaches 164 mm^3.
The major endpoint was to see if the tumor growth could be delayed or mice could be cured. Tumor size was measured two times weekly in two dimensions using a caliper, and the volume was expressed in mm^3 using the formula: V=0.5 a×b^2 where a and b are the long and short diameters of the tumor, respectively. […]
TGI was calculated for each group using the formula: TGI (%)=[1−(Ti−T0)/(Vi−V0)]×100; Ti is the average tumor volume of a treatment group on a given day, T0 is the average tumor volume of the treatment group on the day of treatment start, Vi is the average tumor volume of the vehicle control group on the same day with Ti, and V0 is the average tumor volume of the vehicle group on the day of treatment start.
A one-way ANOVA was performed to compare tumor volume among groups, and when a significant F-statistics (a ratio of treatment variance to the error variance) was obtained, comparisons between groups were carried out with Games-Howell test. All data were analyzed using Prism. […]

[7] = Tolerability (body weight) in LU-01-0486 NSCLC PDX model; type: in vivo, mouse; conditions: dose not given; humane sacrifice of animals at day 24
Description: as §1, with “twice weekly),” for “every day),”

[8] = test system: MT1-positive tumor xenografts; conditions: mouse, in vivo, iv
MT1-MMP = MT1-MMP (Homo sapiens, UniProt P50281); experiment: MT1-MMP fluorescent polarization competition; type: binding; conditions: up to 20 μM

## COc1cc2cc(c1Cl)N(C)C(=O)C[C@H](OC(=O)[C@H](C)N(C)C(=O)CCN(C)C(=O)OCc1ccc(NC(=O)[C@H](CCCNC(N)=O)NC(=O)[C@@H](NC(=O)CCCC(=O)NCCC(=O)N(C)CC(=O)N(C)CC(=O)N(C)CC(=O)N(C)CC(=O)N(C)CC(=O)N(C)CC(=O)N(C)CC(=O)N(C)CC(=O)N(C)CC(=O)N(C)CC(=O)NC(C)C(=O)NC3CSCc4cc5cc(c4)CSCC(NC(=O)C(C)NC(=O)C(Cc4cccc6ccccc46)NC(=O)C(CCC(=O)O)NC(=O)C(CC(N)=O)NC(=O)C(C)NC3=O)C(=O)NC(C)C(=O)NC(CC(=O)O)C(=O)NC(Cc3ccccc3)C(=O)NC(Cc3ccc(O)cc3)C(=O)NC(CC(=O)O)C(=O)NC(C(C)(C)C)C(=O)NC(C(N)=O)CSC5)C(C)C)cc1)[C@]1(C)O[C@H]1[C@H](C)[C@@H]1C[C@@](O)(NC(=O)O1)[C@H](OC)/C=C/C=C(\C)C2 (stereo partly drawn) [Compound I-8] ({X4-PABC-Cit-Val-Glutaryl-βAla}-[Sar][Sar][Sar][Sar][Sar][Sar][Sar][Sar][Sar][Sar][ξA][ξC][ξA][ξN][ξE][ξ1Nal][ξA][ξC][ξA][ξD][ξF][ξY][ξD][ξTle][ξC]-NH2; linker 12-18-25 via TBMB)
[1]; 1 mg/kg biw
  mouse with severe tumor ulceration: 1/3
[1]; 3 mg/kg biw
  mouse died at day 14: 1/3

## C[C@H](NC(=O)CN(C)C(=O)CN(C)C(=O)CN(C)C(=O)CN(C)C(=O)CN(C)C(=O)CN(C)C(=O)CN(C)C(=O)CN(C)C(=O)CN(C)C(=O)CN(C)C(=O)CCN)C(=O)N[C@H]1CSCc2cc3cc(c2)CSC[C@H](NC(=O)[C@@H](C)NC(=O)[C@H](Cc2cccc4ccccc24)NC(=O)[C@H](CCC(=O)O)NC(=O)[C@H](CC(N)=O)NC(=O)[C@@H](C)NC1=O)C(=O)N[C@@H](CCC(=O)O)C(=O)N[C@@H](CC(=O)O)C(=O)N[C@@H](Cc1ccccc1)C(=O)N[C@@H](Cc1ccc(O)cc1)C(=O)N[C@@H](CC(=O)O)C(=O)N[C@@H](C(C)(C)C)C(=O)N[C@H](C(N)=O)CSC3 [Compound N241] (H-[βAla][Sar][Sar][Sar][Sar][Sar][Sar][Sar][Sar][Sar][Sar]AC[dA]NE[1Nal][dA]CEDFYD[Tle]C-NH2; linker 13-19-26 via TBMB; N-terminus and C-terminus assumed)
MMP15
  binding (in words): no binding
MMP1 [2]
  binding (in words): no binding
MT1
  impact on catalytic activity (in words): no direct impact
MMP9
  impact on catalytic activity (in words): no direct impact
Catalytic domain of MT1
  binding (in words): no binding
MMP24
  binding (in words): no binding
MMP2 [3]
  binding (in words): no binding
MMP1 [4]
  impact on catalytic activity (in words): no direct impact
Hemopexin domain of MT1
  Kd: ~2 nM
MMP16
  binding (in words): no binding
Pro-MMP1
  binding (in words): no binding
MMP2 [5]
  impact on catalytic activity (in words): no direct impact
[6]
  impact on cell migration or invasion (in words): no direct impact

## CC(=O)O[C@@]12CO[C@@H]1C[C@H](O)[C@@]1(C)C(=O)[C@H](O)C3=C(C)[C@@H](OC(=O)[C@H](O)[C@@H](NC(=O)OC(C)(C)C)c4ccccc4)C[C@@](O)([C@@H](OC(=O)c4ccccc4)[C@H]21)C3(C)C [Docetaxel]
LU-01-0486 PDX
  inhibition of tumor growth (in words): significant inhibition of tumor growth
[7]
  effect on body weight (in words): severe weight loss

## C[C@H](NC(=O)CN(C)C(=O)CN(C)C(=O)CN(C)C(=O)CN(C)C(=O)CN(C)C(=O)CN(C)C(=O)CN(C)C(=O)CN(C)C(=O)CN(C)C(=O)CN(C)C(=O)CCN)C(=O)N[C@H]1CSCc2cc3cc(c2)CSC[C@H](NC(=O)[C@@H](C)NC(=O)[C@H](Cc2cccc4ccccc24)NC(=O)[C@H](CCC(=O)O)NC(=O)[C@H](CC(N)=O)NC(=O)[C@@H](C)NC1=O)C(=O)N[C@@H](CCC(=O)O)C(=O)N[C@@H](CC(=O)O)C(=O)N[C@@H](Cc1ccccc1)C(=O)N[C@@H](Cc1ccc(O)cc1)C(=O)N[C@@H](CC(=O)O)C(=O)N[C@@H](C(C)(C)C)C(=O)N[C@H](C(N)=O)CSC3 [^177Lu-loaded N241, metal not drawn] (H-[βAla][Sar][Sar][Sar][Sar][Sar][Sar][Sar][Sar][Sar][Sar]AC[dA]NE[1Nal][dA]CEDFYD[Tle]C-NH2; linker 13-19-26 via TBMB; N-terminus and C-terminus assumed)
[8]
  tumor localization (in words): rapid tumor localization

## (B-Ala)-Sar10-ACVPCADFPIWYC (SEQ ID NO: 17) (AXXXXXXXXXXACVPCADFPIWYC; not fully specified; N-methyl; non-natural residues) [non-binding peptide]
MT1-MMP
  inhibition in MT1-MMP fluorescent polarization competition: no inhibition
